Laboratory results as given in PubChem BioAssay AID276 (DTP/NCI, 2004).
Several values for one entry are separate records, joined by “and”; a condition that tells them apart may be missing. Equal values may be shown once. Inconclusive results and toxic doses are left out. The calls were made as follows: active = survival T/C of 150% or more; inactive = T/C below 125% in these data.

System: B6C3F1 mice, Lewis lung carcinoma iv, survival T/C
Assay: NCI In Vivo Anticancer Drug Screen. Data for tumor model Lewis Lung Carcinoma (intravenous) in B6C3F1 mice
Settings: endpoint: median survival time, higher = longer survival
Method in brief: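 Transplantable tumor in mice; compound treated vs vehicle controls; read-out survival; value = treated/control (T/C).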

[1] = dose: 12.5 mg/kg/injection, schedule: Q01DX009 (ip), vehicle: saline with Tween-80
[2] = dose: 25.0 mg/kg/injection, schedule: Q01DX009 (ip), vehicle: saline with Tween-80
[3] = dose: 50.0 mg/kg/injection, schedule: Q01DX009 (ip), vehicle: saline with Tween-80
[4] = dose: 6.25 mg/kg/injection, schedule: Q01DX009 (ip), vehicle: water
[5] = dose: 12.5 mg/kg/injection, schedule: Q01DX009 (ip), vehicle: water
[6] = dose: 25.0 mg/kg/injection, schedule: Q01DX009 (ip), vehicle: water
[7] = dose: 50.0 mg/kg/injection, schedule: Q01DX009 (ip), vehicle: water

Measured: T/C

CCOC(OCC)C(=O)OCC(=O)[C@]1(O)Cc2c(O)c3c(c(O)c2[C@@H](OC2CC(N)C(O)C(C)O2)C1)C(=O)c1c(OC)cccc1C3=O (some centres undefined)
inactive: dose: 0.13 mg/kg/injection, schedule: Q01DX009 (ip), vehicle: water 113 % of control | dose: 0.5 mg/kg/injection, schedule: Q01DX009 (ip), vehicle: water 116 % of control | dose: 1.0 mg/kg/injection, schedule: Q01DX009 (ip), vehicle: water 112 % of control | dose: 2.0 mg/kg/injection, schedule: Q01DX009 (ip), vehicle: water 120 % of control

O=C(Nc1ccccc1)c1c(O)[nH]c(=S)[nH]c1=O
inactive: [1] 103 % of control | [2] 106 % of control | [3] 115 % of control

CC(C)CCC(=O)c1ccoc1
inactive: dose: 0.12 mg/kg/injection, schedule: Q03HX027 (ip), vehicle: saline with Tween-80 99 % of control | dose: 0.25 mg/kg/injection, schedule: Q03HX027 (ip), vehicle: saline with Tween-80 97 % of control | dose: 0.5 mg/kg/injection, schedule: Q03HX027 (ip), vehicle: saline with Tween-80 109 % of control | dose: 1.0 mg/kg/injection, schedule: Q03HX027 (ip), vehicle: saline with Tween-80 117 % of control

NC(=O)c1[nH]nc(C2OC(CO)C(O)C2O)c1O (centres undefined)
inactive: dose: 0.31 mg/kg/injection, schedule: Q01DX009 (ip), vehicle: saline 91 % of control and 105 % of control | dose: 0.62 mg/kg/injection, schedule: Q01DX009 (ip), vehicle: saline 98 % of control and 101 % of control | dose: 1.25 mg/kg/injection, schedule: Q01DX009 (ip), vehicle: saline 120 % of control and 122 % of control | dose: 2.5 mg/kg/injection, schedule: Q01DX009 (ip), vehicle: saline 122 % of control

Nc1n[n+](-c2ccccc2)no1
inactive: dose: 3.13 mg/kg/injection, schedule: Q01DX009 (ip), vehicle: water 108 % of control | [4] 100 % of control | [5] 113 % of control | [6] 114 % of control

CCSC(=O)N1c2ccc(OC)cc2C=CC1C#N (centres undefined)
inactive: [1] 98 % of control | [2] 113 % of control | [3] 99 % of control | dose: 100.0 mg/kg/injection, schedule: Q01DX009 (ip), vehicle: saline with Tween-80 104 % of control | dose: 200.0 mg/kg/injection, schedule: Q01DX009 (ip), vehicle: saline with Tween-80 110 % of control | dose: 400.0 mg/kg/injection, schedule: Q01DX009 (ip), vehicle: saline with Tween-80 108 % of control

CC(C)[C@](O)(C(=O)OCC1=CCN2CC[C@@H](O)[C@@H]12)[C@H](C)O
inactive: [6] 100 % of control | [7] 97 % of control | dose: 100.0 mg/kg/injection, schedule: Q01DX009 (ip), vehicle: water 100 % of control | dose: 200.0 mg/kg/injection, schedule: Q01DX009 (ip), vehicle: water 109 % of control | dose: 400.0 mg/kg/injection, schedule: Q01DX009 (ip), vehicle: water 102 % of control

O=C1C=C[C@H](O)[C@@]2(CO)O[C@@H]12
inactive: dose: 0.31 mg/kg/injection, schedule: Q01DX009 (ip), vehicle: saline with Tween-80 101 % of control | dose: 0.62 mg/kg/injection, schedule: Q01DX009 (ip), vehicle: saline with Tween-80 101 % of control | dose: 1.25 mg/kg/injection, schedule: Q01DX009 (ip), vehicle: saline with Tween-80 114 % of control | dose: 2.5 mg/kg/injection, schedule: Q01DX009 (ip), vehicle: saline with Tween-80 98 % of control | dose: 5.0 mg/kg/injection, schedule: Q01DX009 (ip), vehicle: saline with Tween-80 102 % of control | dose: 10.0 mg/kg/injection, schedule: Q01DX009 (ip), vehicle: saline with Tween-80 93 % of control

COC(=O)[C@@H]1c2cc3c(c(O)c2[C@@H](OC)C[C@@]1(C)O)C(=O)c1c(O)cc2c(c1C3=O)OC1O[C@@]2(C)[C@H](O)[C@@H](N(C)C)[C@@H]1O
inactive: dose: 1.56 mg/kg/injection, schedule: Q01DX009 (ip), vehicle: saline 99 % of control | dose: 3.13 mg/kg/injection, schedule: Q01DX009 (ip), vehicle: saline 112 % of control | dose: 6.25 mg/kg/injection, schedule: Q01DX009 (ip), vehicle: saline 101 % of control | dose: 12.5 mg/kg/injection, schedule: Q01DX009 (ip), vehicle: saline 97 % of control

COc1ccc(OC)c(Cc2cnc3nc(N)nc(N)c3c2C)c1
inactive: [4] 104 % of control | [5] 112 % of control | [6] 100 % of control | [7] 92 % of control
